Key:
[1] = test system: patients with Wilson disease (WD); settings: in vivo
[2] = test system: patients with Wilson disease (WD); assay: Study 301: daily mean AUEC of plasma directly measured non-ceruloplasmin-bound copper (dNCC), copper mobilization; format: in vivo, human; settings: for Mean Daily dNCC AUEC0-48 w, LSM: ANCOVA; for Mean Daily dNCC AUEC0-48 w, LSM / Mean Daily dNCC AUEC0-48 w, Mean: multiple imputation; for Mean Daily dNCC AUEC0-48 w, Mean: Full Analysis Set; for Mean Daily dNCC AUEC0-48 w, Between Group LSM Diff / Mean Daily dNCC AUEC0-48 w, Within Group LSM: lower block of Table 5
From the text: FIG. 1 provides a schematic view of the study design. […] This study is referred throughout as Study 301.
The primary endpoint integrated copper mobilization and sequestration (i.e., copper control) throughout the 48-week Primary Treatment Period by assessment of daily mean area under the effect-time curve (AUEC) of directly measured non-ceruloplasmin-bound copper (dNCC) concentration. […] Measurement of dNCC in plasma is highly sensitive and accurate, requiring no special formulas or assumptions. As proposed, dNCC AUEC0-48 W is an indirect measure of copper mobilization and sequestration.
This assessment is also applicable to SoC treatments. In addition, plasma Cp, CpC, plasma total copper, and LBC were measured with AUEC calculated for plasma total copper and LBC.
The AUEC for dNCC concentration was calculated using the trapezoidal rule, and then divided by number of days to yield a mean daily AUEC plasma dNCC concentration from baseline to Week 48 (expressed as μmol/L and described as AUEC0-48 W).
Tests were performed at a significance level of 0.05 (2-sided).

[3] = test system: patients with Wilson disease (WD); assay: Study 301: adverse events in participants who switched from SoC to TTM in the Extension Period; settings: SoC: Weeks 0-48, N=70; TTM after switch: Weeks 49-96, N=61
[4] = test system: patients with Wilson disease (WD); assay: Unified Wilson Disease Rating Scale (UWDRS) Part II total score (disability); format: in vivo, human; settings: for UWDRS Part II (0-40) change from baseline, Mean (SD): pooled Studies 301 and 201; for UWDRS Part II (0-40) change from baseline, LSM / UWDRS Part II (0-40) change from baseline, Mean: Study 301 TTM long term set
From the text: Unified Wilson Disease Rating Scale (Parts I, II, and III): The UWDRS is a clinical rating scale designed to evaluate the neurological manifestations of WD that generally can be divided into 3 movement disorder syndromes: dystonic, ataxic, and Parkinsonian syndrome. The UWDRS comprises 3 parts: UWDRS Part I (level of consciousness, item 1), UWDRS Part II (a patient-reported review of daily activity items [disability], items 2 to 11), and UWDRS Part III (a detailed neurological examination, items 12 to 34).
The UWDRS Part I and Part III were assessed by a neurologist who is blinded to the treatment randomization, while UWDRS Part II may be reported to a non-blinded member of the study team by the patient, family member, or caregiver. The UWDRS has not been formally evaluated in adolescents. However, the components of Part I (level of consciousness), Part II (patient or caregiver-reported disability) and Part III (neurologic examination findings) were not fundamentally different between adults and adolescents. Patients aged 12 years and older were expected to be able to comply with UWDRS assessments.
Pooled results from all such participants will be integrated together into one timeline to allow analyses of changes in UWDRS, long-term copper control, and long-term safety laboratory data.

## bis-choline tetrathiomolybdate [TTM]
[1]
  ALT increased AE, % participants: 14.6%
  ALT increased AE, E events: 25
  ALT increased AE, N participants: 20
  ALT increased adverse event: 14.6%
  AST increased AE, % participants: 2.9%
  AST increased AE, E events: 4
  AST increased AE, N participants: 4
  GGT increased AE, % participants: 2.2%
  GGT increased AE, E events: 3
  GGT increased AE, N participants: 3
  Hepatic enzyme increased AE, N participants: 3
  Hepatic function abnormal AE, % participants: 2.2%
  Hepatic function abnormal AE, E events: 3
  Hepatic function abnormal AE, N participants: 3
  Hyperbilirubinemia AE, % participants: 0.7%
  Hyperbilirubinemia AE, E events: 1
  Hyperbilirubinemia AE, N participants: 1
  Hypertransaminasemia AE, % participants: 1.5%
  Hypertransaminasemia AE, E events: 4
  Hypertransaminasemia AE, N participants: 2
  Jaundice AE, % participants: 0.7%
  Jaundice AE, E events: 1
  Jaundice AE, N participants: 1
  LFT abnormal AE, % participants: 1.5%
  LFT abnormal AE, E events: 2
  LFT abnormal AE, N participants: 2
  LFT increased AE, % participants: 2.9%
  LFT increased AE, E events: 4
  LFT increased AE, N participants: 4
  Liver disorder AE, % participants: 0.7%
  Liver disorder AE, E events: 1
  Liver disorder AE, N participants: 1
  participants with ALT>3×ULN but≤5×ULN: 10.2%
  participants with ALT>5×ULN but≤10×ULN: 7.3%
  participants with ALT>10×ULN but≤20×ULN: 0.7%
  participants with ALT>20×ULN: 2.9%
  participants with post-baseline elevation of ALT ≥3× ULN: 29 participants
[2]; Cohort 1
  Mean Daily dNCC AUEC0-48 w, LSM Diff (TTM-SoC): 1.64 µmol/L
  Mean Daily dNCC AUEC0-48 w, LSM: 2.50 µmol/L
  Mean Daily dNCC AUEC0-48 w, Mean: 2.68 µmol/L
  Mean Daily dNCC AUEC0-48 w, Between Group LSM Diff: 1.72 µmol/L
  Mean Daily dNCC AUEC0-48 w, Within Group LSM: 2.59 µmol/L
[2]; Cohort 2
  Mean Daily dNCC AUEC0-48 w, LSM Diff (TTM-SoC): 3.79 µmol/L
  Mean Daily dNCC AUEC0-48 w, LSM: 4.76 µmol/L
  Mean Daily dNCC AUEC0-48 w, Mean: 4.58 µmol/L
  Mean Daily dNCC AUEC0-48 w, Between Group LSM Diff: 3.68 µmol/L
  Mean Daily dNCC AUEC0-48 w, Within Group LSM: 4.64 µmol/L
[2]; Overall
  Mean Daily dNCC AUEC0-48 w, LSM Diff (TTM-SoC): 2.18 µmol/L
  Mean Daily dNCC AUEC0-48 w, LSM: 3.18 µmol/L
  Mean Daily dNCC AUEC0-48 w, Mean: 3.12 µmol/L
  Mean Daily dNCC AUEC0-48 w, Between Group LSM Diff: 2.12 µmol/L
  Mean Daily dNCC AUEC0-48 w, Within Group LSM: 3.06 µmol/L
[2]; W0-W48, cohort 1 incomplete response or intolerant to prior SoC, p<0.0001
  dNCC area under the effect curve, LSM difference (SE) TTM versus SoC: 1.64 (0.297)
[3]
  Musculoskeletal and connective tissue disorders, E (events): 7
  Musculoskeletal and connective tissue disorders, participants with AE: 7 (11.5) N (%)
[4]; 0-48W, symptomatic patients
  UWDRS Part II score change (mean): −1.7
[4]; Study 301 Full Analysis Set
  UWDRS Part II (0-40), Change from Baseline at 48 weeks, LSM: −0.1
  UWDRS Part II (0-40), Change from Baseline at 48 weeks, Mean: −0.6
[4]; TTM exposure 4 weeks
  UWDRS Part II (0-40) change from baseline, Mean (SD): −0.3 (2.28)
[4]; TTM exposure 12 weeks
  UWDRS Part II (0-40) change from baseline, Mean (SD): −0.4 (2.76)
[4]; TTM exposure 24 weeks
  UWDRS Part II (0-40) change from baseline, Mean (SD): −0.4 (3.42)
[4]; TTM exposure 36 weeks
  UWDRS Part II (0-40) change from baseline, Mean (SD): −0.9 (4.11)
[4]; TTM exposure 48 weeks
  UWDRS Part II (0-40) change from baseline, Mean (SD): −1.2 (4.24)
[4]; TTM exposure 60 weeks
  UWDRS Part II (0-40) change from baseline, Mean (SD): −1.4 (4.35)
[4]; TTM exposure 72 weeks
  UWDRS Part II (0-40) change from baseline, Mean (SD): −1.9 (4.74)
[4]; TTM exposure 96 weeks
  UWDRS Part II (0-40) change from baseline, Mean (SD): −2.5 (6.11)
[4]; TTM exposure 120 weeks
  UWDRS Part II (0-40) change from baseline, Mean (SD): −3.1 (6.82)
[4]; TTM exposure 144 weeks
  UWDRS Part II (0-40) change from baseline, Mean (SD): −3.3 (6.61)
[4]; TTM exposure 168 weeks
  UWDRS Part II (0-40) change from baseline, Mean (SD): −6.2 (10.17)
[4]; TTM exposure 192 weeks
  UWDRS Part II (0-40) change from baseline, Mean (SD): −5.9 (9.88)
[4]; TTM exposure 216 weeks
  UWDRS Part II (0-40) change from baseline, Mean (SD): −7.1 (10.90)
[4]; TTM exposure 240 weeks
  UWDRS Part II (0-40) change from baseline, Mean (SD): −6.6 (10.09)
[4]; TTM exposure 264 weeks
  UWDRS Part II (0-40) change from baseline, Mean (SD): −6.2 (9.02)
[4]; TTM vs SoC, P 0.4430
  UWDRS Part II (0-40), Difference at 48 weeks, LSM: 0.4
[4]; Week 24
  UWDRS Part II (0-40) change from baseline, LSM: −0.4
  UWDRS Part II (0-40) change from baseline, Mean: −0.3
[4]; Week 48
  UWDRS Part II (0-40) change from baseline, LSM: −0.7
  UWDRS Part II (0-40) change from baseline, Mean: −0.7
[4]; Week 72
  UWDRS Part II (0-40) change from baseline, LSM: −1.0
  UWDRS Part II (0-40) change from baseline, Mean: −1.2
[4]; Week 96
  UWDRS Part II (0-40) change from baseline, LSM: −1.1
  UWDRS Part II (0-40) change from baseline, Mean: −1.1
[4]; Week 120
  UWDRS Part II (0-40) change from baseline, LSM: −1.7
  UWDRS Part II (0-40) change from baseline, Mean: −1.4
[4]; Week 144
  UWDRS Part II (0-40) change from baseline, LSM: −2.0
  UWDRS Part II (0-40) change from baseline, Mean: −2.0
